Results as given in publication PMC6715447 (Science (New York, N.Y.), 2019).
pIC50: −log10 of the molar value.

Target: T1, cysteamine (2-aminoethanethiol) dioxygenase (ADO) (Homo sapiens, UniProt Q96SZ5)
T1 sequence (Q96SZ5 1-270): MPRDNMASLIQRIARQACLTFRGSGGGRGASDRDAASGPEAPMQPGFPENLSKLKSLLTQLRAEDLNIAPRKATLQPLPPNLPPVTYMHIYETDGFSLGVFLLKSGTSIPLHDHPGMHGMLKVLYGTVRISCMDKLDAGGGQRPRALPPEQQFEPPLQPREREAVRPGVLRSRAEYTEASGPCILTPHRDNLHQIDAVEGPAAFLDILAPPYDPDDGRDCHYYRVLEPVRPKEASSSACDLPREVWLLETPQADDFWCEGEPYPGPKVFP
Test: competition of N-Cys peptide dioxygenation by recombinant ADO
Type: biochemical

Structure (SMILES) | pIC50
NCCS [cysteamine] | 1.43
N[C@@H](CS)C(=O)O [cysteine] | 1.89
